According to patent publication US4343943A, “Cephalosporin analogs” (Kyowa Hakko Kogyo Co., Ltd., priority 1978, dated 1982):
In brackets after ≈: the same amount, converted by molar mass. Like-named read-outs stand apart in the source and are kept apart here.

Columns and labels:
Format in all cases: cell-based
[1] = system: Klebsiella pneumoniae 8045; assay: Antibacterial activity, Heart Infusion Agar Dilution Method (pH 7.2)
Experimental: (§1) Antibacterial activities of the compounds obtained in Examples 6 and 8 are measured according to the Heart Infusion Agar Dilution Method (pH 7.2). Cefazolin is used as a control.

Serratia marcescens T-26 = assay: as above; settings: T26
Experimental: as §1

Escherichia coli Juhl = assay: as above
Experimental: as §1

[2] = system: Pseudomonas aeruginosa 145; assay: as above
Experimental: as §1

[3] = system: Staphylococcus epidermidis; assay: as above
Experimental: as §1

[4] = system: Pseudomonas aeruginosa No. 1; assay: as above
Experimental: as §1

[5] = system: Staphylococcus aureus 209-P; assay: as above
Experimental: as §1

Proteus rettgeri KY4289 = assay: as above; settings: Providencia rettgeri
Experimental: as §1

Proteus mirabilis 1287 = assay: as above
Experimental: as §1

[6] = system: Escherichia coli GN 2411-5; assay: as above; settings: GN2411
Experimental: as §1

Pseudomonas putida F264 = assay: as above
Experimental: as §1

Escherichia coli NIHJC-2 = assay: as above
Experimental: as §1

[7] = system: Klebsiella pneumoniae Y-60; assay: as above; settings: Y60
Experimental: as §1

Proteus vulgaris 6897 = assay: as above
Experimental: as §1

[8] = system: Staphylococcus aureus Smith; assay: as above
Experimental: as §1

Proteus morganii KY4298 = assay: as above; settings: Morganella morganii
Experimental: as §1

Serratia marcescens T-55 = assay: as above; settings: T55
Experimental: as §1

Bacillus subtilis KY4273 = assay: Antibacterial activity, Heart Infusion Agar Dilution Method (pH 7.0)
Experimental: (§2) Antibacterial activities of the product obtained in this Example are measured according to the Heart Infusion Agar Dilution Method (pH 7.0).

Proteus vulgaris KY4277 = assay: as above
Experimental: as §2

Erwinia aroides KY3241 = assay: as above
Experimental: as §2

Vibrio percolans KY4174 = assay: as above; settings: Comamonas terrigena
Experimental: as §2

Shigella sonnei KY4281 = assay: as above
Experimental: as §2

[9] = system: Klebsiella pneumonia KY4275; assay: as above; settings: Klebsiella pneumoniae
Experimental: as §2

[10] = system: Salmonella typhosa KY4278; assay: as above; settings: Salmonella enterica
Experimental: as §2

[11] = system: Staphylococcus aureus KY4279; assay: as above
Experimental: as §2

Escherichia coli KY4271 = assay: as above
Experimental: as §2

[12] = Escherichia coli Juhl, agar dilution, read-out: MIC
[13] = NIHJC2, Escherichia coli NIHJC-2, agar dilution, pH 7.2, read-out: MIC

Row | MIC [1] | MIC (Serratia marcescens T-26) | MIC (Escherichia coli Juhl; [12]) | MIC [2] | MIC [3] | MIC [4] | MIC [5] | MIC (Proteus rettgeri KY4289) | MIC (Proteus mirabilis 1287) | MIC [6] | MIC (Pseudomonas putida F264) | MIC (Escherichia coli NIHJC-2; [13]) | MIC [7] | MIC (Proteus vulgaris 6897) | MIC [8] | MIC (Proteus morganii KY4298) | MIC (Serratia marcescens T-55) | SMILES | also measured
1 | 50 µg/mL (≈ 138 µM) | ≥ 50 µg/mL | ≥ 50 µg/mL | ≥ 50 µg/mL | ≥ 50 µg/mL | ≥ 50 µg/mL | ≥ 50 µg/mL | ≥ 50 µg/mL | ≥ 50 µg/mL | ≥ 50 µg/mL | ≥ 50 µg/mL | ≥ 50 µg/mL | ≥ 50 µg/mL | ≥ 50 µg/mL | ≥ 50 µg/mL | ≥ 50 µg/mL | ≥ 50 µg/mL | CO/N=C(/C(=O)N[C@@H]1C(=O)N2C(C(=O)O)=CC=C[C@H]12)c1csc(N)n1 (relative stereo) [Example 6, (±)-cis-7-[2-(2-amino-4-thiazolyl)-2-anti-methoxyiminoacetamido]-1-azabicyclo[4,2,0]oct-2,4-diene-8-on-2-carboxylic acid] | –
2 | 6.25 µg/mL (≈ 17.2 µM) | ≥ 50 µg/mL | 50 µg/mL (≈ 138 µM) | ≥ 50 µg/mL | ≥ 50 µg/mL | ≥ 50 µg/mL | ≥ 50 µg/mL | 6.25 µg/mL (≈ 17.2 µM) | 6.25 µg/mL (≈ 17.2 µM) | 25 µg/mL (≈ 68.8 µM) | 12.5 µg/mL (≈ 34.4 µM) | 25 µg/mL (≈ 68.8 µM) | ≥ 50 µg/mL | 6.25 µg/mL (≈ 17.2 µM) | ≥ 50 µg/mL | 12.5 µg/mL (≈ 34.4 µM) | 50 µg/mL (≈ 138 µM) | CO/N=C(\C(=O)N[C@@H]1C(=O)N2C(C(=O)O)=CC=C[C@H]12)c1csc(N)n1 (relative stereo) [Example 8, (±)-cis-7-[2-(2-amino-4-thiazolyl)-2-syn-methoxyiminoacetamido]-1-azabicyclo[4,2,0]oct-2,4-diene-8-on-2-carboxylic acid] | –
3 | – | – | – | – | – | – | – | – | – | – | – | – | – | – | – | – | – | O=C(Cc1cccs1)NC1C(=O)N2C(C(=O)O)=CC=CC12 (stereo not drawn) [Example 10, (±)-cis-7-[2-(thiophene-2-yl)acetylamino]-1-azabicyclo[4,2,0]oct-2,4-diene-8-on-2-carboxylic acid] | MIC (Bacillus subtilis KY4273): 55.6 µg/mL (≈ 183 µM); MIC (Proteus vulgaris KY4277): 27.8 µg/mL (≈ 91.3 µM); MIC (Erwinia aroides KY3241): 13.9 µg/mL (≈ 45.7 µM); MIC (Vibrio percolans KY4174): 55.6 µg/mL (≈ 183 µM); MIC (Shigella sonnei KY4281): > 55.6 µg/mL; MIC [9]: 27.8 µg/mL (≈ 91.3 µM); MIC [10]: 13.9 µg/mL (≈ 45.7 µM); MIC [11]: 27.8 µg/mL (≈ 91.3 µM); MIC (Escherichia coli KY4271): > 55.6 µg/mL

Row | SMILES | MIC [1] | MIC (Serratia marcescens T-26) | MIC (Escherichia coli Juhl; [12]) | MIC [2] | MIC [3] | MIC [4] | MIC [5] | MIC (Proteus rettgeri KY4289) | MIC (Proteus mirabilis 1287) | MIC [6] | MIC (Pseudomonas putida F264) | MIC (Escherichia coli NIHJC-2; [13]) | MIC [7] | MIC (Proteus vulgaris 6897) | MIC [8] | MIC (Proteus morganii KY4298) | MIC (Serratia marcescens T-55) | also measured
4 | Cc1nnc(SCC2=C(C(=O)O)N3C(=O)[C@@H](NC(=O)Cn4cnnn4)[C@H]3SC2)s1 [Cefazolin, reference compound] | 0.78 µg/mL (≈ 1.72 µM) | > 100 µg/mL | – | > 100 µg/mL | 0.78 µg/mL (≈ 1.72 µM) | – | < 0.05 µg/mL | 25 µg/mL (≈ 55 µM) | 12.5 µg/mL (≈ 27.5 µM) | – | > 100 µg/mL | – | 3.12 µg/mL (≈ 6.86 µM) | 12.5 µg/mL (≈ 27.5 µM) | 0.4 µg/mL (≈ 0.88 µM) | > 100 µg/mL | 50 µg/mL (≈ 110 µM) | MIC (Escherichia coli Juhl; Escherichia coli): 1.56 µg/mL (≈ 3.43 µM); MIC (Escherichia coli NIHJC-2; Escherichia coli, NIHJC2, pH 7.2): 1.56 µg/mL (≈ 3.43 µM)
